# Laboratory results as given in PubChem BioAssay AID1949 (Southern Research Institute, 2009).
# Inconclusive results are not listed. The source made the active and inactive calls. How the calls were made is not given here.
# Test system: M. tuberculosis H37Rv growth inhibition
# Assay: Mycobacterium tuberculosis H37Rv growth inhibition, cell based, confirmatory dose response (AID 1949);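 further: bacteria grown 7 days with compound before Alamar blue readout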
row,SMILES,IC50
1,CCN(CC)CCn1c(=N)n(CC(O)COc2ccc(Cl)cc2Cl)c2ccccc21 (stereo not drawn),1.38 µg/mL
2,Cc1c(Cl)cccc1NC(=O)c1ccc(OC(C)C(=O)OC2CCCCC2)cc1 (stereo not drawn),< 0.1 µg/mL
3,Cc1ccc(NC(=O)NC23CC4(C)CC(C)(CC(C)(C4)C2)C3)cc1,> 50 µg/mL (inactive)
4,CCN(CC)c1ncnc2c1sc1nc(C)cc(C)c12,> 50 µg/mL (inactive)
5,CCOC(=O)C(Oc1ccc2oc(C)c(C(=O)OC)c2c1)c1ccccc1 (stereo not drawn),2.95 µg/mL
6,CC(C)CC(=O)NC(c1ccc(Cl)cc1Cl)c1c(O)ccc2ccccc12 (stereo not drawn),1.72 µg/mL
7,CC(=O)Oc1ccc2nc(-c3ccc(C(C)(C)C)cc3)oc(=O)c2c1,> 50 µg/mL (inactive)
8,CCOc1ccc(Nc2nc(-c3sc(C)nc3C)cs2)cc1,3.38 µg/mL
9,Clc1ccc(OCCCCn2ccnc2)cc1Cl,2.01 µg/mL
10,CC(NC(=O)Nc1ccccc1O)(C(F)(F)F)C(F)(F)F,11.2 µg/mL
11,CC(=O)c1ccc2[nH]c3ccc(C(C)=O)cc3c2c1,0.2 µg/mL
12,CC(NC(=O)Nc1cccc(C(F)(F)F)c1)C1CC2CCC1C2 (stereo not drawn),< 0.1 µg/mL
13,O=C(OCc1c(Cl)cccc1Cl)c1cc2ccccc2oc1=O,> 50 µg/mL (inactive)
14,COc1ccccc1C(=O)Oc1ccc2c(c1)C(C)CC(C)(C)N2 (stereo not drawn),4.97 µg/mL
15,O=C(NC1CCCCC1)c1ccc(COc2cccc3ccccc23)o1,4.65 µg/mL
16,c1ccc(COc2ccc3ccccc3c2CNCc2cccnc2)cc1,7.91 µg/mL
17,N#CC1=C(SCC(=O)Nc2ccccc2[N+](=O)[O-])NC(=O)CC1c1ccc(F)cc1 (stereo not drawn),6.76 µg/mL
18,Cc1cc2ncn(CCOc3ccccc3C)c2cc1C,6.93 µg/mL
19,COc1ccc(C(=O)NC(=S)Nc2ccc(N3CCCCC3)cc2)cc1OC,1.38 µg/mL
20,COc1ccc(CNCCC(c2ccc(OC)cc2)c2ccccc2OC)cc1 (stereo not drawn),8 µg/mL

row,SMILES,IC50
1,COC(=O)COc1ccc(S(=O)(=O)Nc2cccc(Cl)c2C)cc1,9.72 µg/mL
2,CCC(C)NCCOc1ccc(C(C)(C)c2ccccc2)cc1 (stereo not drawn),0.91 µg/mL
3,O=C(CN1CCN(Cc2ccccc2)CC1)Nc1ccc([N+](=O)[O-])cc1C(=O)c1ccccc1,2.78 µg/mL
4,O=C(NCCCn1ccnc1)c1cc(-c2ccc(Br)cc2)nc2ccccc12,9.43 µg/mL
5,CCOC(=O)/C=C/C(=O)Nc1sc2c(c1C(=O)OC)CCC2,0.57 µg/mL
6,CCN1CCN(c2ccc([N+](=O)[O-])c(-n3nc(-c4ccc(Cl)cc4)c4ccccc4c3=O)c2)CC1,5.6 µg/mL
7,Cc1nn(-c2ccc([N+](=O)[O-])cc2)c(C)c1N1C(=O)c2cccc3cc(Br)cc(c23)C1=O,0.39 µg/mL
8,CCS(=O)(=O)c1nnnn1-c1ccccc1F,> 50 µg/mL (inactive)
9,Clc1ccc(OCCOCCNCc2ccccc2)c2ccccc12,6.11 µg/mL
10,O=C(Nc1ccc(N2CCN(Cc3ccccc3F)CC2)cc1)c1ccc([N+](=O)[O-])o1,0.28 µg/mL
11,Cc1cc(O)ccc1N1C(=O)c2cccc3c([N+](=O)[O-])ccc(c23)C1=O,21.3 µg/mL
12,Cc1cc(Br)cc2c1N(CCCOc1ccccc1)C(=O)C2=O,9.2 µg/mL
13,O=C(Nc1ccc(Cl)c(C(F)(F)F)c1)C1CCN(C(=O)c2ccc(Br)cc2)CC1,7.21 µg/mL
14,CC(C)(C)c1ccc(OCCn2c(N)nc3ccccc32)cc1,1.61 µg/mL
15,Cc1ccc(CNC(=S)Nc2ccc(N(C)C)cc2)cc1,5.34 µg/mL
16,O=Cc1c(Nc2ccccc2)nc2ccccn2c1=O,6.7 µg/mL
17,Cc1ccc(C2CC(c3cc(Br)ccc3O)=NN2)cc1 (stereo not drawn),3.46 µg/mL
18,Cc1ccccc1OCCCCn1cnc2ccccc21,6.34 µg/mL
19,Nc1ncnc(Sc2nc3ccccc3s2)c1[N+](=O)[O-],0.5 µg/mL
20,CN1CCN(c2ccc(NC(=S)NC(=O)c3cc4ccccc4o3)cc2)CC1,10.7 µg/mL

row,SMILES,IC50
1,COc1ccc(-c2cc(C(F)F)n3ncc(C(=O)N4CCN(c5ccccc5)CC4)c3n2)cc1,> 50 µg/mL (inactive)
2,COc1cc(CNCc2ccccc2)c(Br)cc1OC1CCCC1,10.5 µg/mL
3,CSc1cccc(NC(=O)C2CCN(C(=O)c3ccc(-c4ccccc4)cc3)CC2)c1,5.73 µg/mL
4,CC(C)(C)NC(=O)c1cc2cc([N+](=O)[O-])ccc2oc1=O,1.48 µg/mL
5,CCCc1ccc(OCC(=O)Nc2ccc(F)cc2)cc1,0.85 µg/mL
6,O=c1cc(-c2ccccc2)nc2c(-c3cccc4ccccc34)c(Cc3ccccc3)[nH]n12,41.9 µg/mL
7,Oc1ccc(Br)cc1-c1nc(-c2cccs2)c(-c2cccs2)[nH]1,1.55 µg/mL
8,Cc1ccc(-c2ccc(/C=C/C(=O)c3ccco3)o2)cc1,1.71 µg/mL
9,Cc1cc(C)c2nc(NC3=NC(c4ccccc4)CC(=O)N3)nc(C)c2c1 (stereo not drawn),> 50 µg/mL (inactive)
10,Cn1nc([N+](=O)[O-])nc1Sc1nnc(-c2cccnc2)o1,2.49 µg/mL
11,COc1ccccc1Nc1nc(N)nc(CN2CCC(Cc3ccccc3)CC2)n1,37.8 µg/mL
12,Cc1ccc(Sc2ccc(C=O)o2)cc1,2.15 µg/mL
13,O=C(Nc1cccc(Cl)c1)c1cc(Br)ccc1Cl,1.53 µg/mL
14,O=S(=O)(CCSc1nc2ccccc2o1)c1nc2ccccc2s1,11.1 µg/mL
15,CC(=O)Oc1ccc2nc(-c3ccc(C)c(C)c3)oc(=O)c2c1,> 50 µg/mL (inactive)
16,Cc1ccc2nc(NCc3ccccc3)[nH]c2c1,1.49 µg/mL
17,CCC(C)(C)C1CCc2sc3ncnc(N4CCN(C)CC4)c3c2C1 (stereo not drawn),6.39 µg/mL
18,O=C(CCSc1nnc(-c2ccccc2)o1)Nc1ccc(F)cc1,5.2 µg/mL
